Publication PMC6522510 (Nature Communications, 2019)
Read-outs that look alike come from different tables or passages of the source.

Tests used:
Parameters in all cases: species or system AML cell lines (8); Primary HTS, single concentration about 10 uM, Cell Titer Glo viability; log10 luminescence, per cent inhibition relative to cycloheximide control
Conditions in all cases: 72 h, inhibitor
CHRF288-11 = test system: CHRF288-11
CMK = test system: CMK
CMS = test system: CMS
M07e = test system: M07e
ML-2 = test system: ML-2
MOLM-13 = test system: MOLM-13
MV4-11 = test system: MV4-11
U937 = test system: U937
[1] = relative to cycloheximide control, log10 luminescence
[2] = relative to cycloheximide control, log10 luminescence, CHRF288-11 %inh, 10 µM
[3] = relative to cycloheximide control, log10 luminescence, CMK %inh, 10 µM
[4] = relative to cycloheximide control, log10 luminescence, CMS %inh, 10 µM
[5] = relative to cycloheximide control, log10 luminescence, M07e %inh, 10 µM
[6] = relative to cycloheximide control, log10 luminescence, ML-2 %inh, 10 µM
[7] = relative to cycloheximide control, log10 luminescence, MOLM-13 %inh, 10 µM
[8] = relative to cycloheximide control, log10 luminescence, MV4-11 %inh, 10 µM
[9] = relative to cycloheximide control, log10 luminescence, U937 %inh, 10 µM

SMILES	CHRF288-11 %inh (CHRF288-11; [1])	CMK %inh (CMK; [1])	CMS %inh (CMS; [1])	M07e %inh (M07e; [1])	ML-2 %inh (ML-2; [1])	MOLM-13 %inh (MOLM-13; [1])	MV4-11 %inh (MV4-11; [1])	U937 %inh (U937; [1])	also measured
Cc1ccc(=O)n(-c2ccccc2)c1 [SJ000288087-4, PIRFENIDONE]	10.42%	-5.144%	4.387%	-1.785%	-0.2811%	2.774%	8.387%	-2.099%	–
CCCCCCCCCCCCCCSCC(=O)O [SJ000288209-4, TETRADECYLTHIOACETIC ACID]	-0.5942%	-1.764%	-0.2083%	1.198%	-0.6377%	-1.133%	-0.2387%	-2.154%	–
Clc1cnc(Oc2ccc(Oc3ncc(Cl)cc3Cl)cc2)c(Cl)c1 [SJ000288225-4, TCPOBOP]	4.243%	-2.209%	-0.7867%	1.992%	1.606%	-2.278%	0.7208%	-1.704%	–
C/C(=C\c1ccc(C(=O)O)cc1)c1ccc2c(c1)C(C)(C)CCC2(C)C [SJ000288227-4, TTNPB | TTNPB (AROTINOID ACID)]	0.3991%	5.715%	11.71%	3.996%	2.308%	8.388%	20.2%	8.124%	–
O=C1Nc2ccccc2/C1=C\c1c(Cl)[nH]c2ccccc12 [SJ000312180-2, CDK1 INHIBITOR]	68.22%	109.3%	93.89%	105.1%	57.06%	82.19%	76.6%	78.83%	–
COCC1=C(C(=O)O)N2C(=O)[C@@H](NC(=O)/C(=N\OC)c3csc(N)n3)[C@H]2SC1 [SJ000312312-2, CEFPODOXIME, FREE ACID| R-3763| U-76253 | CEFPODOXIME, FREE ACID| R-3763| U-76253 | (6R,7R)-7-((Z)-2-(2-AMINOTHIAZOL-4-YL)-2-(METHOXYIMINO)ACETAMIDO)-3-(METHOXYMETHYL)-8-OXO-5-THIA-1-AZABICYCLO[4.2.0]OCT-2-ENE-2-CARBOXYLIC ACID]	0.005285%	34.96%	-1.332%	-1.66%	-0.4312%	-1.275%	-2.052%	-1.004%	–
C[C@]12CCC(=O)C=C1[C@@H]1C[C@@H]1[C@H]1[C@@H]3[C@@H]4C[C@@H]4[C@@]4(CCC(=O)O4)[C@@]3(C)CC[C@@H]12 [SJ000312356-2, DROSPIRENONE]	6.784%	38.69%	0.9318%	3.09%	-0.6244%	1.327%	3.583%	3.696%	–
COc1ccc2nc3cc(Cl)ccc3c(Nc3cc(CN4CCCC4)c(O)c(CN4CCCC4)c3)c2n1 [SJ000518979-1, PYRONARIDINE PHOSPHATE]	68.68%	87.35%	102.4%	115%	59.06%	93.43%	74.19%	76.7%	–
Clc1ccc2c(N3CCN(CCCN4CCN(c5ccnc6cc(Cl)ccc56)CC4)CC3)ccnc2c1 [SJ000518980-1, PIPERAQUINE PHOSPHATE]	-8.556%	-2.506%	3.926%	-0.3802%	-2.97%	-0.1677%	0.4168%	-2.593%	–
CO[C@H]1C[C@@H]2CC[C@@H](C)[C@@](O)(O2)C(=O)C(=O)N2CCCC[C@H]2C(=O)O[C@H]([C@H](C)C[C@@H]2CC[C@@H](OC(=O)C(C)(CO)CO)[C@H](OC)C2)CC(=O)[C@H](C)/C=C(\C)[C@@H](O)[C@@H](OC)C(=O)[C@H](C)C[C@H](C)/C=C/C=C/C=C/1C [SJ000518987-1, TEMSIROLIMUS | CCI-779 | NSC-683864 | TORISEL | TEMSIROLIMUS (CCI-779, NSC 683864)]	29.37%	14.34%	21.7%	19.45%	9.499%	6.723%	11.74%	25.81%	–
Oc1ncc(N(CCCl)CCCl)c(O)n1 [SJ000518988-1, URACIL MUSTARD]	–	–	–	–	–	–	–	–	CHRF288-11 %inh (CHRF288-11; 10 µM): 3.507%; CMK %inh (CMK; 10 µM): -4.305%; CMS %inh (CMS; 10 µM): 1.52%; M07e %inh (M07e; 10 µM): 2.028%; ML-2 %inh (ML-2; 10 µM): 1.705%; MOLM-13 %inh (MOLM-13; 10 µM): -0.3938%; MV4-11 %inh (MV4-11; 10 µM): -1.171%; U937 %inh (U937; 10 µM): -0.2311%
CO[C@H]1O[C@@H]2O[C@@]3(C)CC[C@H]4[C@H](C)CC[C@@H]([C@H]1C)[C@@]24OO3 [SJ000519015-1]	-0.3434%	0.2838%	7.594%	0.2631%	5.533%	2.58%	9.901%	20.8%	–
CC[C@H](C)[C@@H]1NC(=O)[C@H](Cc2ccc(O)cc2)NC(=O)[C@@H](N)CSSC[C@@H](C(=O)N2CCC[C@H]2C(=O)N[C@@H](CC(C)C)C(=O)NCC(N)=O)NC(=O)[C@H](CC(N)=O)NC(=O)[C@H](CCC(N)=O)NC1=O [SJ000519020-1, OXYTOCIN]	-2.465%	-2.47%	-0.7099%	0.04623%	-0.7579%	-2.698%	1.343%	-1.829%	–
CCCN(CCc1ccc(O)cc1)C(=O)[C@@H](C)c1cccc(C(=O)c2ccccc2)c1 [SJ000520373-2, NMDA298-1]	9.808%	9.519%	3.128%	11.25%	1.661%	13.67%	11.33%	10.97%	–
C[C@@H](O)[C@@H]1NC(=O)[C@H](CCCCN)NC(=O)[C@@H](Cc2c[nH]c3ccccc23)NC(=O)[C@H](Cc2ccccc2)NC(=O)[C@@H](NC(=O)[C@H](N)Cc2ccccc2)CSSC[C@@H](C(=O)N[C@H](CO)[C@@H](C)O)NC1=O [SJ000520506-1, OCTREOTIDE ACETATE]	5.062%	-5.736%	0.6202%	-0.4484%	0.4552%	0.6504%	0.9577%	-3.486%	–
O=C1NC(=O)/C(=C\c2ccc3nccnc3c2)S1 [SJ000534768-3, PI 3-K-GAMMA-INHIBITOR | 648450-29-7 | AS-605240 | AS605240 | PI 3-KY INHIBITOR]	–	–	–	–	–	–	–	–	CHRF288-11 %inh (CHRF288-11; [2]): -5.698%; CMK %inh (CMK; [3]): -0.8645%; CMS %inh (CMS; [4]): -2.146%; M07e %inh (M07e; [5]): 2.407%; ML-2 %inh (ML-2; [6]): -0.2464%; MOLM-13 %inh (MOLM-13; [7]): 3.402%; MV4-11 %inh (MV4-11; [8]): 0.09671%; U937 %inh (U937; [9]): -0.7574%
O=C1NC(=O)/C(=C\c2ccc3nccnc3c2)S1 [SJ000534768-4, PI 3-K-GAMMA-INHIBITOR | 648450-29-7 | AS-605240 | AS605240 | PI 3-KY INHIBITOR]	–	–	–	–	–	–	–	–	CHRF288-11 %inh (CHRF288-11; [2]): -3.707%; CMK %inh (CMK; [3]): 2.377%; CMS %inh (CMS; [4]): 2.882%; M07e %inh (M07e; [5]): 2.923%; ML-2 %inh (ML-2; [6]): 1.156%; MOLM-13 %inh (MOLM-13; [7]): 1.092%; MV4-11 %inh (MV4-11; [8]): -0.9615%; U937 %inh (U937; [9]): 0.2634%
CCOC(=O)C1=C(C)NC(C)=C(C(=O)OCC)C1c1ccccc1/C=C/C(=O)OC(C)(C)C [SJ000541098-2, LACIDIPINE]	–	–	–	–	–	–	–	–	CHRF288-11 %inh (CHRF288-11; [2]): -1.312%; CMK %inh (CMK; [3]): 1.983%; CMS %inh (CMS; [4]): -2.509%; M07e %inh (M07e; [5]): -0.9057%; ML-2 %inh (ML-2; [6]): 5.24%; MOLM-13 %inh (MOLM-13; [7]): 10.16%; MV4-11 %inh (MV4-11; [8]): 6.96%; U937 %inh (U937; [9]): 12.91%
